{"source": "BindingDB's records for doi:10.1016/j.chembiol.2009.02.013", "about": "(Pfizer, 2009)", "target": "T1, Fatty-acid amide hydrolase 1 [30-579] (Rattus norvegicus, UniProt P97612)", "T1 construct": "30-579", "T1 sequence (P97612 whole entry)": "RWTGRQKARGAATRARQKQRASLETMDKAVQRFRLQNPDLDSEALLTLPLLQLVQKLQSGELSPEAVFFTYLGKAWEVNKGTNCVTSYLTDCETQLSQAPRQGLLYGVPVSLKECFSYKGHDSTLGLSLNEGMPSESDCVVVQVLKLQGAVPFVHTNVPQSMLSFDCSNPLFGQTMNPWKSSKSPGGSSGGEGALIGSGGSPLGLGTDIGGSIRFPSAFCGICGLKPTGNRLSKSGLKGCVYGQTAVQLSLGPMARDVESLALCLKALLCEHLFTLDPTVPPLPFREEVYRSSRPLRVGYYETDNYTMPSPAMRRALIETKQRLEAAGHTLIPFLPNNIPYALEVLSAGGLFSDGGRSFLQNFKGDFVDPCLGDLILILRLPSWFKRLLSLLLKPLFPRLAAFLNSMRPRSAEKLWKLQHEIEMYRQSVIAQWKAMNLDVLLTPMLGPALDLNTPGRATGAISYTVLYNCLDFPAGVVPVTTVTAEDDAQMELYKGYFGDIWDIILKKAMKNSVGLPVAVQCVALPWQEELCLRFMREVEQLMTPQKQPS", "test": "Enzyme-coupled Assay", "from_the_text": "Enzyme-coupled assay using oleamide as substrate where stoichiometic quantites of NAD are formed upon the generation of ammonia from oleamide by FAAH hydrolysis."}
{"smiles": "O=C(Nc1cccnc1)N1CCC(Cc2cccc(Oc3ccc(C(F)(F)F)cn3)c2)CC1", "note": "[PF-3845, 10]", "values": [{"measurement": "Ki", "value": 230, "unit": "nM"}]}
